Consider nine compounds from PubChem BioAssay (NCI).

Each structure is given as a SMILES string. Several values for one entry are separate records, joined by “and”; a condition that tells them apart may be missing. Identical values can stand only once.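 Briefly, cells in 96-well plates were exposed to five compound concentrations for 48 h, and endpoints were estimated by linear interpolation. GI50 = concentration required for 50% inhibition of growth. The concentration for full growth arrest is given as TGI.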 Some results are limits rather than exact numbers.

The first assay has as its system OVCAR-4 ovarian. The assay can be described thus: NCI-60 cell line screen, 48 h.
For the compound `O=C(NCCN(CCNC(=O)c1cccc(O)c1O)CCNC(=O)c1cccc(O)c1O)c1cccc(O)c1O`, the TGI is > 100 µM.

`COc1cc2nc(Cl)nc(NS(=O)(=O)c3cc4ccccc4s3)c2cc1OC` gave a TGI of 88.1 µM.

Turning to `C[C@@H](CC(=O)OCc1ccccc1)OC1OC(COC(=O)C(C)(C)C)C(OC(=O)C(C)(C)C)C(OC(=O)C(C)(C)C)C1OC(=O)C(C)(C)C` (stereo partly specified), the TGI was > 100 µM.

For the compound `CC(C)(C)OC(=O)N(CCCCNC(=O)C(F)(F)F)CCCNC(=O)C(F)(F)F`, the TGI was > 100 µM.

Consider `C=C1CC[C@@H](CCC2CCC3(OC2)O[C@]2(O)CC[C@@]3(C)OC2(C)C)C(C)(C)[C@H]1C/C=C1\CCOC1=O` (stereo partly specified), for which the TGI was > 100 µM.

Compound `Cc1nc2c(sc3nc4c(cc32)CCC4)c(=O)o1` gave a TGI of 89 µM.

For `COc1ccccc1C1c2cc3c(cc2OC2(OC)COC(=O)C12)OCO3` (stereo unspecified), the TGI was > 95.9 µM.

As to `COc1cc([C@@H]2c3cc4c(cc3[C@@H](Nc3ccc(NC(=O)c5cc([N+](=O)[O-])cn5C)cc3)[C@H]3COC(=O)[C@H]23)OCO4)cc(OC)c1O`, the GI50 was 11.6 µM and 4.09 µM; the TGI was > 100 µM.

Regarding `COc1ccc(/C(Nc2ccccc2)=C(\CCl)c2ccccc2)cc1OC`, the TGI is > 100 µM.

The test system of another assay is OVCAR-3 ovarian. The experiment in a line: NCI-60 cell line screen, 48 h.
Regarding `O=C(NCCN(CCNC(=O)c1cccc(O)c1O)CCNC(=O)c1cccc(O)c1O)c1cccc(O)c1O`, the TGI is > 40.2 µM.

In turn, `COc1cc2nc(Cl)nc(NS(=O)(=O)c3cc4ccccc4s3)c2cc1OC` displayed a TGI of 44.7 µM.

With `C[C@@H](CC(=O)OCc1ccccc1)OC1OC(COC(=O)C(C)(C)C)C(OC(=O)C(C)(C)C)C(OC(=O)C(C)(C)C)C1OC(=O)C(C)(C)C` (stereo partly specified), the TGI was > 100 µM.

In the case of `CC(C)(C)OC(=O)N(CCCCNC(=O)C(F)(F)F)CCCNC(=O)C(F)(F)F`, the TGI is > 100 µM.

The compound `C=C1CC[C@@H](CCC2CCC3(OC2)O[C@]2(O)CC[C@@]3(C)OC2(C)C)C(C)(C)[C@H]1C/C=C1\CCOC1=O` (stereo partly specified) returned a TGI of 54.8 µM.

With `Cc1nc2c(sc3nc4c(cc32)CCC4)c(=O)o1`, the TGI is > 100 µM.

`COc1ccccc1C1c2cc3c(cc2OC2(OC)COC(=O)C12)OCO3` (stereo unspecified) gave a TGI of 69.3 µM.

Regarding `COc1cc([C@@H]2c3cc4c(cc3[C@@H](Nc3ccc(NC(=O)c5cc([N+](=O)[O-])cn5C)cc3)[C@H]3COC(=O)[C@H]23)OCO4)cc(OC)c1O`, the TGI is 10.7 µM and 3.15 µM.

Take `COc1ccc(/C(Nc2ccccc2)=C(\CCl)c2ccccc2)cc1OC`: the TGI is > 100 µM.

In another assay the test system is TK-10 renal. The assay can be described thus: NCI-60 cell line screen, 48 h.
For the compound `O=C(NCCN(CCNC(=O)c1cccc(O)c1O)CCNC(=O)c1cccc(O)c1O)c1cccc(O)c1O`, the TGI was > 100 µM.

As to `COc1cc2nc(Cl)nc(NS(=O)(=O)c3cc4ccccc4s3)c2cc1OC`, the TGI is > 100 µM.

For the compound `C[C@@H](CC(=O)OCc1ccccc1)OC1OC(COC(=O)C(C)(C)C)C(OC(=O)C(C)(C)C)C(OC(=O)C(C)(C)C)C1OC(=O)C(C)(C)C` (stereo partly specified), the TGI is > 100 µM.

On to `CC(C)(C)OC(=O)N(CCCCNC(=O)C(F)(F)F)CCCNC(=O)C(F)(F)F`, for which the TGI is > 100 µM.

As to `C=C1CC[C@@H](CCC2CCC3(OC2)O[C@]2(O)CC[C@@]3(C)OC2(C)C)C(C)(C)[C@H]1C/C=C1\CCOC1=O` (stereo partly specified), the TGI is > 93.1 µM.

Regarding `Cc1nc2c(sc3nc4c(cc32)CCC4)c(=O)o1`, the TGI is > 100 µM.

In the case of `COc1ccccc1C1c2cc3c(cc2OC2(OC)COC(=O)C12)OCO3` (stereo unspecified), the TGI is > 92.4 µM.

Regarding `COc1cc([C@@H]2c3cc4c(cc3[C@@H](Nc3ccc(NC(=O)c5cc([N+](=O)[O-])cn5C)cc3)[C@H]3COC(=O)[C@H]23)OCO4)cc(OC)c1O`, the TGI was 6.15 µM and 2.95 µM.

Turning to `COc1ccc(/C(Nc2ccccc2)=C(\CCl)c2ccccc2)cc1OC`, the TGI is > 100 µM.

In the next assay the test system is SK-MEL-5 melanoma. The assay can be described thus: NCI-60 cell line screen, 48 h.
On to `O=C(NCCN(CCNC(=O)c1cccc(O)c1O)CCNC(=O)c1cccc(O)c1O)c1cccc(O)c1O`, for which the TGI is > 55.8 µM.

As to `COc1cc2nc(Cl)nc(NS(=O)(=O)c3cc4ccccc4s3)c2cc1OC`, the TGI stood at 37.9 µM.

As for `C[C@@H](CC(=O)OCc1ccccc1)OC1OC(COC(=O)C(C)(C)C)C(OC(=O)C(C)(C)C)C(OC(=O)C(C)(C)C)C1OC(=O)C(C)(C)C` (stereo partly specified), the TGI is > 100 µM.

Regarding `CC(C)(C)OC(=O)N(CCCCNC(=O)C(F)(F)F)CCCNC(=O)C(F)(F)F`, the TGI is > 100 µM.

In turn, `C=C1CC[C@@H](CCC2CCC3(OC2)O[C@]2(O)CC[C@@]3(C)OC2(C)C)C(C)(C)[C@H]1C/C=C1\CCOC1=O` (stereo partly specified) displayed a TGI of 4.93 µM.

For the compound `Cc1nc2c(sc3nc4c(cc32)CCC4)c(=O)o1`, the TGI was > 100 µM.

In the case of `COc1ccccc1C1c2cc3c(cc2OC2(OC)COC(=O)C12)OCO3` (stereo unspecified), the TGI came to 59.3 µM.

On to `COc1cc([C@@H]2c3cc4c(cc3[C@@H](Nc3ccc(NC(=O)c5cc([N+](=O)[O-])cn5C)cc3)[C@H]3COC(=O)[C@H]23)OCO4)cc(OC)c1O`, for which the GI50 is 0.0291 µM and 0.0847 µM; the TGI is 0.183 µM and 0.316 µM.

`COc1ccc(/C(Nc2ccccc2)=C(\CCl)c2ccccc2)cc1OC` gave a TGI of 72.2 µM.

In a further assay the test system is 786-0 renal. The experiment in a line: NCI-60 cell line screen, 48 h.
For `O=C(NCCN(CCNC(=O)c1cccc(O)c1O)CCNC(=O)c1cccc(O)c1O)c1cccc(O)c1O`, the TGI was > 100 µM.

Consider `COc1cc2nc(Cl)nc(NS(=O)(=O)c3cc4ccccc4s3)c2cc1OC`, for which the TGI is > 100 µM.

For `C[C@@H](CC(=O)OCc1ccccc1)OC1OC(COC(=O)C(C)(C)C)C(OC(=O)C(C)(C)C)C(OC(=O)C(C)(C)C)C1OC(=O)C(C)(C)C` (stereo partly specified), the TGI is > 100 µM.

In the case of `CC(C)(C)OC(=O)N(CCCCNC(=O)C(F)(F)F)CCCNC(=O)C(F)(F)F`, the TGI was > 100 µM.

On to `C=C1CC[C@@H](CCC2CCC3(OC2)O[C@]2(O)CC[C@@]3(C)OC2(C)C)C(C)(C)[C@H]1C/C=C1\CCOC1=O` (stereo partly specified), for which the TGI was 31.3 µM.

Take `Cc1nc2c(sc3nc4c(cc32)CCC4)c(=O)o1`: the TGI is > 100 µM.

Compound `COc1ccccc1C1c2cc3c(cc2OC2(OC)COC(=O)C12)OCO3` (stereo unspecified) had a TGI of 72.1 µM.

For the compound `COc1cc([C@@H]2c3cc4c(cc3[C@@H](Nc3ccc(NC(=O)c5cc([N+](=O)[O-])cn5C)cc3)[C@H]3COC(=O)[C@H]23)OCO4)cc(OC)c1O`, the TGI was 0.29 µM and 0.261 µM.

For `COc1ccc(/C(Nc2ccccc2)=C(\CCl)c2ccccc2)cc1OC`, the TGI was > 100 µM.

The test system of another assay is MDA-MB-435. The assay can be described thus: NCI-60 cell line screen, 48 h.
For `O=C(NCCN(CCNC(=O)c1cccc(O)c1O)CCNC(=O)c1cccc(O)c1O)c1cccc(O)c1O`, the TGI was > 100 µM.

`COc1cc2nc(Cl)nc(NS(=O)(=O)c3cc4ccccc4s3)c2cc1OC` showed a TGI of 54.5 µM.

With `C[C@@H](CC(=O)OCc1ccccc1)OC1OC(COC(=O)C(C)(C)C)C(OC(=O)C(C)(C)C)C(OC(=O)C(C)(C)C)C1OC(=O)C(C)(C)C` (stereo partly specified), the TGI is > 100 µM.

In the case of `CC(C)(C)OC(=O)N(CCCCNC(=O)C(F)(F)F)CCCNC(=O)C(F)(F)F`, the TGI was > 100 µM.

Compound `C=C1CC[C@@H](CCC2CCC3(OC2)O[C@]2(O)CC[C@@]3(C)OC2(C)C)C(C)(C)[C@H]1C/C=C1\CCOC1=O` (stereo partly specified) registered a TGI of 86.4 µM.

Regarding `Cc1nc2c(sc3nc4c(cc32)CCC4)c(=O)o1`, the TGI worked out at 99.3 µM.

The compound `COc1ccccc1C1c2cc3c(cc2OC2(OC)COC(=O)C12)OCO3` (stereo unspecified) displayed a TGI of 5.74 µM.

Consider `COc1cc([C@@H]2c3cc4c(cc3[C@@H](Nc3ccc(NC(=O)c5cc([N+](=O)[O-])cn5C)cc3)[C@H]3COC(=O)[C@H]23)OCO4)cc(OC)c1O`, for which the GI50 was 0.415 µM and the TGI is > 100 µM.
